Test results from ChEMBL document CHEMBL5620351, “Advancing beyond reverse transcriptase inhibitors: The new era of hepatitis B polymerase inhibitors” (Eur J Med Chem, 2023).
Values belong to the molecule of their own block, whether it stands above or below them.

Key:
HepG2 [1] = experiment: Cytotoxicity against human HepG2 cells assessed as cell viability incubated for 12 days by WST-1 assay; format: functional; conditions: HepG2, 288 h, time 12 day
Hepatitis B virus [2] = experiment: Antiviral activity against HBV infected in human HepDES19 cells assessed as reduction in HBV replication; format: functional, organism-based
HepG2 [3] = experiment: Cytotoxicity against human HepG2 cells assessed as reduction in cell viability by MTS assay; format: functional
HepG2 [4] = experiment: Cytotoxicity against human HepG2 cells assessed as reduction in cell viability in presence of lamivudine by MTS assay; format: functional
Hepatitis B virus [5] = experiment: Antiviral activity against HBV infected in human HepDES19 cells assessed as inhibition of extracellular HBV DNA by qPCR analysis; format: functional, organism-based
[6] = Cytotoxicity against human HepDES19 cells assessed as reduction in cell viability incubated for 1 hr by MTS assay; format: functional
[7] = Cytotoxicity against human HEK293 cells assessed as reduction in cell viability incubated for 1 hr by MTS assay; format: toxicity, cell-based
Hepatitis B virus [8] = experiment: Antiviral activity against HBV infected in human HepG2 2.2.15 cells assessed as reduction on HBsAg level incubated for 5 days; format: functional; design: concentration or dose not given beside the values; conditions: time 5 day
Hepatitis B virus [9] = experiment: Antiviral activity against HBV infected in human HepG2-hNTCP cells assessed as reduction in HBV DNA replication by qRT-PCR analysis; format: functional, organism-based
[10] = Cytotoxicity against human HepG2-hNTCP cells assessed as reduction in cell viability incubated for 3 days by celltiter glo assay; format: functional; conditions: 72 h, time 3 day
[11] = Cytotoxicity against human HB611 cells assessed as reduction in cell viability incubated for 3 days by celltiter glo assay; format: functional; conditions: HB611, 72 h, time 3 day
Hepatitis B virus [12] = experiment: Antiviral activity against HBV infected in human HepDES19 cells assessed as inhibition of HBV replication by qPCR analysis; format: functional, organism-based
Hepatitis B virus [13] = experiment: Antiviral activity against HBV infected in human HepG2 2.2.15 cells assessed as reduction in intracellular DNA level; format: functional, organism-based
Hepatitis B virus [14] = experiment: Antiviral activity against HBV infected in human HepG2 2.2.15 cells assessed as reduction in extracellular DNA level; format: functional, organism-based
HepG2 2.2.15 = experiment: Cytotoxicity against human HepG2 2.2.15 cells assessed as cell viability incubated for 12 days by WST-1 assay; format: functional; conditions: HepG2 2.2.15, 288 h, time 12 day
[15] = Cytotoxicity against human LX2 cells assessed as reduction in cell viability incubated for 1 hr by MTS assay; format: toxicity, cell-based; conditions: LX-2 cells
Hepatitis B virus [16] = experiment: Antiviral activity against HBV infected in human Hep38.7-TeT cells assessed as inhibition of extracellular HBV DNA by real-time qPCR analysis; format: functional, organism-based
Hepatitis B virus [17] = experiment: Antiviral activity against HBV infected in human HePAD38 cells assessed as reduction in HBV replication by qPCR analysis; format: functional, organism-based
[18] = Cytotoxicity against human HepAD38 cells assessed as reduction in cell viability incubated for 4 days by XTT assay; format: functional; conditions: HePAD38, 96 h, time 4 day
Hepatitis B virus [19] = experiment: Antiviral activity against HBV infected in human HepG2.2.15.7 cells assessed as reduction in HBV DNA replication by TR-PCR analysis; format: functional, organism-based
Huh-7 [20] = experiment: Cytotoxicity against human Huh-7 cells assessed as reduction in cell viability by Neutral Red staining based assay; format: functional
Huh-7 [21] = experiment: Cytotoxicity against human Huh-7 cells assessed as reduction in cell viability by LDH release assay; format: functional
Hepatitis B virus [22] = experiment: Antiviral activity against HBV infected in human HePAD38 cells assessed as reduction in of intracellular HBV DNA incubated for 5 days by Southern blotting analysis; format: functional, organism-based; conditions: HePAD38, 120 h
Hepatitis B virus [23] = experiment: Antiviral activity against lamivudine resistant HBV infected in human HepG2 cells assessed as reduction in of intracellular HBV DNA incubated for 5 days by Southern blotting analysis; format: functional, organism-based; conditions: HepG2, 120 h
Hepatitis B virus [24] = experiment: Antiviral activity against adefovir-resistant HBV infected in human HepG2 cells assessed as reduction in of intracellular HBV DNA incubated for 5 days by Southern blotting analysis; format: functional, organism-based; conditions: HepG2, 120 h
Hepatitis B virus [25] = experiment: Antiviral activity against HBV infected in human HepG2-NTCP12 cells assessed as inhibition of extracellular HBV DNA incubated for 2 weeks by SYBR green dye based quantitative PCR analysis; format: functional, organism-based; conditions: HepG2-NTCP12, 336 h
[26] = Cytotoxicity against human primary hepatocytes assessed as cell viability incubated for 72 hrs by MTS assay; format: toxicity, cell-based, Hepatocyte
[27] = Cytotoxicity against human primary hepatocytes assessed as cell viability incubated for 72 hrs by LDH release assay; format: toxicity, cell-based, Hepatocyte
[28] = Inhibition of HBV RNA polymerase; design: species or system Hepatitis B virus
Hepatitis B virus [29] = experiment: Antiviral activity against HBV transfected in human HB611 cells assessed as reduction of HBV DNA replication incubated for 5 days by q-PCR analysis; format: functional, organism-based; conditions: HB611, 120 h
Hepatitis B virus [30] = experiment: Antiviral activity against HBV transfected in human HB611 cells; format: functional, organism-based
[31] = Cytotoxicity against human HB611 cells assessed as reduction in cell viability incubated for 6 to 9 days by celltiter-glo assay; format: functional; conditions: time 6-9 day

EC50 (Hepatitis B virus [2]): 0.11 µM
SMILES: COc1ccccc1CON=C(C)c1c(C)cc(=O)n(O)c1O

EC50 (Hepatitis B virus [2]): 2.4 µM
SMILES: COC(=O)C1C(=O)N(O)C(=O)c2cc(NC(=O)c3ccccc3)ccc21 (stereo unspecified)

EC50 (Hepatitis B virus [5]): 0.5 µM
SMILES: COC(=O)c1c2c(cc(O)c(=O)c1O)COC2=O
CC50 [6]: > 77 µM | CC50 at 1 h [7]: > 100 µM

EC50 (Hepatitis B virus [2]): 0.11 µM
SMILES: CC(=NOc1ccc(F)cc1)c1c(C)cc(=O)n(O)c1O

EC50 (Hepatitis B virus [12]): 0.69 µM
SMILES: COc1ccc(CNC(=O)C2C(=O)N(O)C(=O)c3cc([N+](=O)[O-])ccc32)cc1 (stereo unspecified)

IC50 (Hepatitis B virus [9]): 7.31 µM
SMILES: N=C(N)SCCc1ccc(OCc2ccc([N+](=O)[O-])cc2)cc1
CC50 [10]: 37.4 µM | CC50 [11]: 41.9 µM

EC50 (Hepatitis B virus [16]): 30 µM
SMILES: O=C(/C=C/c1ccc(O)c(O)c1)O[C@H](Cc1ccc(O)c(O)c1)C(=O)O [ROSMARINIC ACID]

EC50 (Hepatitis B virus [12]): 0.69 µM
SMILES: COC(=O)C1C(=O)N(O)C(=O)c2ccccc21 (stereo unspecified)

EC50 (Hepatitis B virus [12]): 0.69 µM
SMILES: O=C(Nc1ccc(F)cc1)C1C(=O)N(O)C(=O)c2ccccc21 (stereo unspecified)

IC50 (Hepatitis B virus [17]): 5.5 µM
SMILES: O=c1cc(Nc2cccc(-c3ccc(F)cc3)c2)[nH]c(=O)n1O
CC50 [18]: > 100 µM

EC50 (Hepatitis B virus [25]): 0.049 µM
SMILES: Cc1c(O)c2cc(Br)cnc2n(O)c1=O
CC50 at 72 h [26]: > 100 µM | CC50 at 72 h [27]: > 100 µM

EC50 (Hepatitis B virus [12]): 0.69 µM
SMILES: O=C1Cc2ccccc2C(=O)N1O
CC50 (HepG2 [3]): > 100 µM | CC50 (HepG2 [4]): > 100 µM

EC50 (Hepatitis B virus [2]): 0.11 µM
SMILES: COc1ccc(CON=C(C)c2c(C)cc(=O)n(O)c2O)cc1

EC50 (Hepatitis B virus [12]): 0.69 µM
SMILES: O=C(NCc1ccccc1)C1C(=O)N(O)C(=O)c2ccccc21 (stereo unspecified)

Continued, molecule first:

SMILES: O=C(/C=C/c1ccc(O)c(O)c1/C=C/c1ccc(O)c(O)c1)O[C@H](Cc1ccc(O)c(O)c1)C(=O)O [SALVIANOLIC ACID A]
CC50 (HepG2 [1]): 86 µM

SMILES: CC(C)c1ccc(O)c(=O)c(O)c1 [BETA-THUJAPLICINOL]
CC50 (HepG2 [3]): 47 µM | CC50 (HepG2 [4]): 48 µM

SMILES: O=c1c(O)c(-c2ccc(O)c(O)c2)oc2cc(O)cc(O)c12 [QUERCETIN]
Activity (Hepatitis B virus [8]): 62%

SMILES: O=C(CCc1ccc(O)c(O)c1)OCCc1ccc(O)c(O)c1
CC50 (HepG2 [1]): 229 µM

SMILES: Cc1ccc(C(=O)Nc2ccc(S(=O)(=O)O)c3cc(S(=O)(=O)O)cc(S(=O)(=O)O)c23)cc1NC(=O)c1cccc(NC(=O)Nc2cccc(C(=O)Nc3cc(C(=O)Nc4ccc(S(=O)(=O)O)c5cc(S(=O)(=O)O)cc(S(=O)(=O)O)c45)ccc3C)c2)c1 [SURAMIN]
IC50 (Hepatitis B virus [9]): 0.27 µM | CC50 [10]: 200 µM | CC50 [11]: 168 µM

SMILES: C=CCNc1nc(N)c(/C(N)=N\C#N)s1
EC50 (Hepatitis B virus [13]): 0.74 µM | EC50 (Hepatitis B virus [14]): 0.48 µM | CC50 (HepG2 2.2.15): 7.2 µM

SMILES: COC(=O)c1c(CCl)cc(O)c(=O)c(O)c1C(=O)OC
EC50 (Hepatitis B virus [5]): 0.4 µM | CC50 [6]: > 80 µM | CC50 at 1 h [7]: > 100 µM | CC50 at 1 h [15]: > 100 µM

SMILES: Oc1cc(O)cc(/C=C/c2ccc(O)c(O)c2)c1 [PICEATANNOL]
EC50 (Hepatitis B virus [19]): 96.2 µM

SMILES: C/C=C(\C)C(=O)O[C@H]1C[C@@H](OC(C)=O)[C@@]2(C(=O)OC)CO[C@H]3[C@@H](O)[C@@](C)([C@]45O[C@@]4(C)[C@H]4C[C@@H]5O[C@@H]5OC=C[C@@]54O)[C@H]4[C@]1(CO[C@]4(O)C(=O)OC)[C@@H]32 [AZADIRACTIN]
Activity (Hepatitis B virus [8]): 62%

SMILES: Nc1nc(O)c2ncn([C@H]3CC[C@@H](CO)O3)c2n1
CC50 (Huh-7 [20]): 26 µM | CC50 (Huh-7 [21]): 97 µM | EC50 (Hepatitis B virus [22]): 0.3 µM | EC50 (Hepatitis B virus [23]): 0.89 µM | EC50 (Hepatitis B virus [24]): 0.66 µM

SMILES: O=c1ccc2cc3ccoc3cc2o1 [PSORALEN]
Activity (Hepatitis B virus [8]): 62%

SMILES: O=C(/C=C/c1ccc(O)c(O)c1)NCCc1ccc(O)c(O)c1
CC50 (HepG2 [1]): 229 µM

SMILES: NC(Cc1cc(O)c(O)cc1O)C(=O)O (stereo unspecified)
IC50 [28]: 6.6 µM | IC50 (Hepatitis B virus [29]): 21 µM | EC50 (Hepatitis B virus [30]): 16.1 µM | CC50 [31]: 66 µM
